From patent US7425579B2, “Methods for inhibiting activity of polyamine transporters” (Universite Laval, priority 1998, dated 2008)
Read-outs that look alike come from different tables or passages of the source.

What was measured:
[1] = test system: mammalian polyamine carrier; assay: Determination of polyamine uptake activity: inhibition of diamine and polyamine transport in T-47D cells; format: cell-based, human; conditions: for Ki: mean±SD; for Km: substrate itself
Experimental: The rate of diamine and polyamine transport was determined in T-47D and ZR-75-1 cells incubated in serum-free RPMI 1640 medium as previously described (U.S. Pat. No. 6,083,496; Covassin et al. (1999) Bioorg. Med. Chem. Lett. 9, 1709-1714), using 20 μM [^3H]putrescine (179 Ci/mol), 5 μM [^3H]spermidine (246 Ci/mol) and 3 μM [^14C]spermine (300-400 mCi/mol) respectively, as substrates for a 20-min assay period. Uptake activity was expressed per amount of DNA as fluorometrically determined using 3,5-diaminobenzoic acid (Simard et al. (1990) Endocrinology 126, 3223-3231). Kinetic parameters of polyamine transport inhibition for the transport antagonists were determined by Lineweaver-Burke analysis of uptake activity in the presence of 0.1 μM [^3H]putrescine, 0.03 μM [^3H]spermidine, and 0.01 μM [^14C]spermine plus increasing concentrations of nonradioactive substrate. For competitive inhibitors, Ki values were estimated by iterative curve fitting for sigmoidal equations describing transport rates in the presence of increasing concentrations of antagonist, using the Cheng-Prusoff equation for competitive inhibition (U.S. Pat. No. 6,083,496).
The ability of BSD and BNSD compounds to inhibit uptake of the main natural substrates of the mammalian polyamine carrier, namely putrescine, spermidine and spermine, was evaluated using T-47D human breast cancer cells (Table 1).
Data are presented as the mean±SD of at least two independent determinations of IC50 values, each based on triplicate determinations of uptake velocity at increasing inhibitor concentrations.
The potency of the polyamines and their xylylated dimers as competitive inhibitors of spermidine transport was evaluated in the T-47D human breast cancer cell line (Table 2).

[2] = test system: T-47D cells; assay: Reversal of DFMO-induced cytostasis by exogenous spermidine in T-47D cells; format: cell-based, human; conditions: T-47D cells with extracellular spermidine and DFMO
Experimental: FIGS. 6A, 6B, 6C and 6D are graph showing that antagonism of DFMO-induced cytostasis by exogenous spermidine depends on the polyamine and linker structure of the compounds used in a method according to a preferred embodiment of the invention. In particular, T-47D cells were grown for 8-9 d with the indicated concentrations of spermidine in medium containing 1 mM aminoguanidine, in the presence of DFMO (●), transport inhibitor (□), DFMO plus transport inhibitor (▪), or in the absence of either agent (∘), and total DNA content per culture was then determined. Panels A, B, C, and D describe the effect of BNSD-X, BSD-X, BNSD-3 and BSD-3, respectively. Data are presented as the mean±SD for triplicate cultures from one out of at least two identical experiments;
FIGS. 8A and 8B are graphs representing the time course of the effect of a compound used in a method according to a preferred embodiment of the invention on rescue of DFMO-induced cytostasis by exogenous spermidine. In particular, at time zero, T-47D (panel A) or CHO-K1 (panel B) were seeded at 1×10^4 or 5×10^3 cells/well, respectively, in medium containing 1 mM aminoguanidine, plus either 0.3 μM spermidine (Spd, ●), 2 mM DFMO (□), Spd+DFMO (▪), 50 μM (A) or 100 μM (B) BNSD-X (Δ), BNSD-X+Spd (▴), BNSD-X+DFMO (□), BNSD-X+Spd+DFMO (▾), or vehicle only (∘). At the indicated time, total DNA content/well was determined. Data are presented as the mean±SD for triplicate cultures from one representative experiment;
To determine the ability of polyamine transport antagonists to potentiate DFMO-induced inhibition of cell proliferation in the presence of exogenous polyamines, cells were grown for the indicated period in growth medium supplemented with 1 mM aminoguanidine, and either DFMO (1 to 5 mM), the indicated transport inhibitor (50 or 100 μM), or the combination thereof, as well as increasing concentrations of spermidine (0.1 to 300 μM). Fresh medium was added every other day, and cell mass was determined at various time points during the period of exponential growth, or at the end of the experimental period. For the latter experiments, the FBS supplement was replaced with dextran-coated charcoal-treated FBS (5%, v/v) plus 0.5 μg/ml insulin in the case of T-47D, ZR-75-1 and MCF-7 cells (U.S. Pat. No. 6,083,496).

[3] = test system: CHO-K1 cells; assay: Determination of intracellular polyamine contents in CHO-K1 cells; format: cell-based, Chinese hamster
Experimental: At the indicated time, cells were harvested for the determination of putrescine (A), spermidine (B) and spermine contents (C). Data are presented as the mean±SD for triplicate cultures from one representative experiment; […] At the indicated time intervals, medium was removed, cell monolayers were rinsed twice: with 10 ml of ice-cold Ca^2+/Mg^2+-free phosphate-buffered saline (PBS) (2.7 mM KCl, 1.5 mM KH2PO4, 8.1 mM Na2HPO4, 137 mM NaCl), and cells were harvested by low-speed centrifugation (2400 g for 5 min at 4° C.). […] Polyamine content was then determined by ion-pair reverse phase HPLC with fluorometric detection after post-column derivatization with o-phthaldialdehyde as described (U.S. Pat. No. 6,083,496). […] Pat. No. 6,083,496).

[4] = test system: MDA-MB-231 human breast cancer xenograft; assay: MDA-MB-231 human breast cancer xenograft in nude mice; format: in vivo, immunodeficient CD-1 mice; conditions: 39 d
Experimental: (§1) In particular, the mice have been treated with the following compounds: BNSD-X (1% w/v) (●), 0.3 (w/v) DFMO (□), 0.3% DFMO+BNSD-X (▪), 1% (w/v) DFMO (Δ), or 1% DFMO+BNSD-X (▴). Drugs were dissolved in drinking water which was given ad libitum to the animals. Control mice (∘) received distilled water only;
as §1, with “only; and” for “only;”
In particular, these compounds are BNSD-X (1% w/v), 0.3 (w/v) DFMO, 0.3% DFMO+BNSD-X, 1% (w/v) DFMO, or 1% DFMO+BNSD-X Drugs were dissolved in drinking water which was given ad libitum to the animals. Control mice received distilled water only.
For human xenograft experiments, athymic CD-1 mice were inoculated with 5×10^6 MDA-MB-231 human breast cancer cells (grown in tissue culture incubators to mid-exponential phase) in both sides of the inguinal mammary fat pad. After ˜2 weeks, when the tumor had reached a diameter ˜4 mm (as measured with a caliper), control mice were paired to treated ones in accordance with tumor volume (time zero). Animals were allowed free access to water containing 0, 0.3 or 1% DFMO (w/v), plus or minus 1% (w/v) BNSD-X (7 mice/experimental group). Tumor volume (V) was measured twice weekly with a caliper in 2 dimensions using the approximation V=(L×w^2)/2, where L is the length and w is the width of the xenograft (Bandyopadhyay et al., (2002) Cancer Res. 62:4690-4695). Animals were sacrificed after 39 d (i.e. when tumor size in control mice had reached about 500 mm^3). Mammary tumors were be excised and weighed.
The efficacy of BNSD-X as a chemotherapeutic agent was assessed in the MDA-MB-231 model of human breast cancer xenograft in the nude mouse, a model which is known to be sensitive to polyamine depletion by DFMO (Weeks et al., (2000) Exp Cell Res. 261:293-302). For that purpose, MDA-MB-231 cells were injected in the left and right mammary fat pads of immunodeficient CD-1 mice. Mice were then allowed to drink either BNSD-X at the optimal concentration (1%, w/v), as well as DFMO at either 0.3% or 1% (w/v) plus or minus 1% BNSD-X for 39 days before sacrificing the animals and measuring total final tumor mass (FIG. 12-14). The BNSD-X solution alone or with 0.3% DFMO led to a slight (˜7%) reduction of body weight, which was attenuated by the addition of 1% DFMO (FIG. 13) However, this effect of body weight could largely be accounted on the decreased tumor burden in the BNSD-X treated animals (FIG. 14). […]

[5] = T-47D breast cancer cells, read-out: Ki, inhibition of [3H]putrescine uptake
[6] = T-47D breast cancer cells, read-out: Ki, inhibition of [3H]spermidine uptake
[7] = T-47D breast cancer cells, read-out: Ki, inhibition of [14C]spermine uptake
[8] = T-47D human breast cancer cells, calculated from IC50, read-out: Ki for the inhibition of spermidine transport (Table 2)

SMILES | Ki [1, 5] [µM] | Ki [1, 6] [µM] | Ki [1, 7] [µM] | other results
NCCCN(CCCN)CCN(CCCN)CCCN [18a] | 1.2 ± 0.2 | 17.3 ± 1.4 | 20.4 ± 6.9 | 
NCCCCN(CCCN)CCN(CCCN)CCCCN [18b] | 0.65 ± 0.07 | 3 ± 0.5 | 5.9 ± 1.1 | 
NCCCCN(CCCN)CCCN(CCCN)CCCCN [19b] | 0.24 ± 0.03 | 1.7 ± 0.4 | 2.8 ± 0.6 | effect on spermidine-mediated reversal of DFMO-induced growth inhibition, T-47D [2]: significantly potentiated DFMO-induced cytostasis
NCCCN(CCCN)CCCCN(CCCN)CCCN [20a] | 0.72 ± 0.2 | 4.9 ± 0.1 | 4.3 ± 0.7 | 
NCCCCN(CCCN)CCCCN(CCCN)CCCCN [20b] | 0.52 ± 0.06 | 2.4 ± 0.4 | 6.2 ± 0.6 | 
NCCCN(CCCN)CCCCCN(CCCN)CCCN [21a] | 0.54 ± 0.11 | 3.1 ± 0.5 | 2.6 ± 0.7 | 
NCCCCN(CCCN)CCCCCN(CCCN)CCCCN [21b] | 0.57 ± 0.1 | 0.83 ± 0.08 | 8 ± 1.1 | 
NCCCN(CCCN)CCCCCCN(CCCN)CCCN [22a] | 0.72 ± 0.18 | 2.4 ± 0.3 | 0.82 ± 0.1 | 
NCCCCN(CCCN)CCCCCCN(CCCN)CCCCN [22b] | 0.91 ± 0.11 | 0.69 ± 0.16 | 6.3 ± 0.8 | 
NCCCN(CCCN)CCCCCCCCN(CCCN)CCCN [23a] | 0.66 ± 0.06 | 7.5 ± 1.6 | 7 ± 1 | 
NCCCCN(CCCN)CCCCCCCCN(CCCN)CCCCN [23b] | 0.44 ± 0.07 | 3 ± 0.2 | 3.6 ± 0.7 | 
NCCCN(CCCN)CCCCCCCCCCN(CCCN)CCCN [24a] | 1.6 ± 0.4 | 1.5 ± 0.2 | 2.4 ± 0.7 | 
NCCCCN(CCCN)CCCCCCCCCCN(CCCN)CCCCN [24b] | 0.14 ± 0.01 | 1.2 ± 0.2 | 1.9 ± 0.3 | 
NCCCN(C/C=C/CN(CCCN)CCCN)CCCN [25a] | 0.1 ± 0.01 | 1.8 ± 0.1 | 1.5 ± 0.1 | 
NCCCCN(C/C=C/CN(CCCN)CCCCN)CCCN [25b] | 0.27 ± 0.04 | 2 ± 0.5 | 1.6 ± 0.2 | 
NCCCN(CC#CCN(CCCN)CCCN)CCCN [26a] | 2.6 ± 0.4 | 25.6 ± 4 | 12.8 ± 2.2 | 
NCCCCN(CC#CCN(CCCN)CCCCN)CCCN [26b] | 1.9 ± 0.4 | 16.9 ± 2 | 27.7 ± 3.2 | 
NCCCN(CCCN)Cc1cccc(CN(CCCN)CCCN)c1 [27a] | 0.64 ± 0.08 | 3 ± 0.5 | 5.7 ± 1.3 | 
NCCCCN(CCCN)Cc1cccc(CN(CCCN)CCCCN)c1 [27b] | 0.19 ± 0.05 | 1.6 ± 0.1 | 2.4 ± 0.3 | 
NCCCNCCCCN(CCCN)Cc1ccc(CN(CCCN)CCCCNCCCN)cc1 [BSM-X] |  |  |  | fold lower apparent Ki for spermidine uptake inhibition relative to the spermine monomer ([1]; T-47D cells): 2 fold; Ki [1, 8]: 1.1 ± 0.1 µM
NCCCNCCCC(NCCCN)C(=O)NCCSSCCNC(=O)C(CCCNCCCN)NCCCN (centres unmarked) [DESC, 2,2′-dithiobis(N-ethyl-spermine-5-carboxamide), reference compound] | 3.1 ± 0.4 | 12.6 ± 1.4 | 15.9 ± 4 | 
NCCC[C@](N)(C(=O)O)C(F)F [DFMO, α-difluoromethylornithine, reference compound] |  |  |  | decrease of the intracellular spermidine pool by DFMO alone ([3]; after a 24-h lag period, up to 4 days): 80%; effect on intracellular putrescine content ([3]; single agent): rapidly led to putrescine depletion; effect on intracellular spermine content ([3]; up to 4 days): little effect on spermine content; reduction of tumor burden ([4]; DFMO alone (0.3%)): 50±6%; growth inhibition (tumor) ([4]; DFMO alone (1%)): 73±7%
NCCCCN [Putrescine, 1,4-diaminobutane, reference compound] |  |  |  | Km ([1]; T-47D breast cancer cells, read-out: Km for [3H]putrescine uptake): 7.4 ± 1.1 µM; Ki [1, 8]: > 500 µM
NCCCNCCCCNCCCN [Spermine, reference compound] | 0.65 ± 0.12 | 0.92 ± 0.08 |  | Km ([1]; T-47D breast cancer cells, read-out: Km for [14C]spermine uptake): 2.7 ± 0.4 µM; Ki [1, 8]: 2.1 ± 0.2 µM
